These results are taken from US4536397A, “Antibiotics, neoviridogriseins, and their method of production” (Sanraku-Ocean Co., Ltd., priority 1983, dated 1985).

A short description of data set [1]: Growth promotion in chicks on rye diet, 11 days. It is filed as in vivo. The note with it: diet conc 100 ppm. The procedure:
was tested in vivo by incorporation in the diet of growing chicks. One-day old cockerels, 15 birds per treatment were used. The chicks were maintained for 11 days on a feed containing about 55% rye grain, supplemented with vitamins, minerals, fat and protein sources. The high content of rye grain normally gives poor to moderate growth, and this diet is a standard one used for screening growth promoters and antibiotic feed additives. Penicillin (100 ppm) was used as a positive control. Feed/Gain ratio is grams feed consumed per gram of weight gained. Body weight ratio is the ratio of chick body weight at the end of the 11 day study to the initial body weight. The last column is the average gain per bird (in grams).

Data set [2] deals with Proteus vulgaris. Description: MIC, tube dilution method. It is filed as cell-based. The note with it: BHI broth.
The subject of data set [3] is Salmonella gallinanum. Description: MIC, tube dilution method. It is filed as cell-based. Conditions: BHI broth.
Data set [4] relates to Mycoplasma agalactiae PG 2. Description: MIC, dilution method, Mycoplasma. It counts as cell-based. The note with it: Table 4; PPLO broth (Chanock's medium; Difco). The method, then:
(§1) The MIC were determined by the dilution method.
(§2) (2): PPLO broth (Chanock's medium; Difco)
(§3) was tested in vitro agains several Mycoplasma strains.

Data set [5] deals with Mycoplasma pulmonis PG 22. The data set is described as follows: MIC, dilution method, Mycoplasma. It counts as cell-based. The note with it: Table 4; PPLO broth (Chanock's medium; Difco). The procedure:
as §1, §2, §3

The test system of data set [6] is Mycoplasma fermentans. Description: MIC, dilution method, Mycoplasma. It is filed as cell-based. The note with it: Table 4; PPLO broth (Chanock's medium; Difco). The method, then: as §1, §2, §3
The subject of data set [7] is Bacillus subtilis ATCC 6633. The data set is described as follows: MIC, tube dilution method. It is filed as cell-based. Conditions: BHI broth.
The subject of data set [8] is Mycoplasma gallisepticum KP13. The data set is described as follows: MIC, dilution method, Mycoplasma. Conditions: Table 4; PPLO enrichment broth (Eiken). It counts as cell-based. More on the design: unit not given beside the values. The procedure:
as §1
Medium (1): PPLO enrichment broth (Eiken, Japan)
as §3

Data set [9] deals with Staphylococcus aureus. The data set is described as follows: MIC repeated with a far lower dilution rate. It counts as cell-based. The note with it: far lower dilution rate, brain heart infusion broth. From the text:
This MIC experiment was based on the two-fold dilutions. To differentiate neoviridogrisein II and viridogrisein in their antibiotic activity, the MIC determination was repeated with a far lower dilution rate.
Medium: brain heart infusion broth

Data set [10] concerns Sarcina lutea. Description: MIC, tube dilution method (incl. synergism with griseoviridin). It counts as cell-based. The note with it: Table 1; BHI broth.
Data set [11] concerns Candida albicans. Description: MIC, tube dilution method. It is filed as cell-based. The note with it: malt extract-yeast extract medium.
In data set [12] the test system is Staphylococcus aureus. Description: MIC, tube dilution method. It counts as cell-based. The note with it: BHI broth.
The test system of data set [13] is Escherichia coli. The data set is described as follows: MIC, tube dilution method. It is filed as cell-based. The note with it: BHI broth.
Data set [14] in a line: Solubility in solvents. It counts as physicochemical.
Data set [15] relates to Pseudeomonas aeruginosa. Description: MIC, tube dilution method. The note with it: BHI broth. It counts as cell-based.
Data set [16] concerns Streptococcus pyogenes. The data set is described as follows: MIC, tube dilution method. It is filed as cell-based. The note with it: BHI broth containing 10% horse blood.
Data set [17] concerns Diplococcus pneumoniac type 1. Description: MIC, tube dilution method. It counts as cell-based, Diplococcus pneumoniae. The note with it: BHI broth containing 10% horse blood.
The subject of data set [18] is Staphylococcus sp. The data set is described as follows: MIC, tube dilution method. It is filed as cell-based. Conditions: BHI broth.

≈ marks a conversion by molar mass, not a printed value. Starred links: 1 amine or outer side, 2 acyl side, 3 side chain; linkers in the order of their positions; H or OH if unused. Positions of bridges follow the written chain, without caps; N, C: chain ends. Non-standard residues stand in square brackets, D forms with d. Residues, ends and D or L forms follow the SMILES beside them. *: point of attachment. X2 = CC(C)[C@H](C)[C@@H](C(=O)[*:2])N(C)[*:1]; d(cisHyp) = O=C(O)[C@H]1C[C@@H](O)CN1; Picolinoyl(3-OH) = O=C(c1ncccc1O)*; NMePhg = CN[C@H](C(=O)O)c1ccccc1; Sar = CNCC(=O)O

In the case of `CC1(C)S[C@@H]2[C@H](NC(=O)Cc3ccccc3)C(=O)N2[C@H]1C(=O)O` [Penicillin], the “FEED/GAIN RATIO” value in [1] (11 days, grams feed consumed per gram of weight gained) is on record as 1.197. The “AVG B.W.GAIN” value in data set [1] (average gain per bird, 11 days) is recorded as 163.20 GMS. Besides, the “BODY WEIGHT RATIO” value in data set [1] (body weight at end of 11 days to initial) was 5.012.
`CC(C)C[C@H]1NC(=O)[C@@H](NC(=O)c2ncccc2O)[C@@H](C)OC(=O)[C@H](c2ccccc2)N(C)C(=O)[C@H](C)NC(=O)[C@H]([C@@H](C)C(C)C)N(C)C(=O)CN(C)C(=O)[C@H]2C[C@@H](O)CN2C1=O` [VG, viridogrisein] ({Picolinoyl(3-OH)}-T[dL][d(cisHyp)][Sar][X2]A[NMePhg]; ester 1-C): the MIC in data set [2] is greater than 25 µg/mL; in data set [3] it was greater than 25 µg/mL; in [4] it was 0.78; in [5], 1.56; in [6], less than 0.05; in data set [7], 0.8 µg/mL (≈ 0.91 µM). For the same molecule, the MIC in data set [8] was determined as 0.10; in [9] (strain 209 P), 0.133 µg/mL (≈ 0.151 µM); in data set [9] (strain (EM, CM, SM, PC, TC)r) it was 0.334 µg/mL (≈ 0.38 µM); in data set [9] (strain (TC, CP, PC)r), 0.334 µg/mL (≈ 0.38 µM); in data set [9] (strain Bx-1633(PC)r) it was 0.267 µg/mL (≈ 0.304 µM); in data set [9] (strain Russell(PC)r) it was 0.267 µg/mL (≈ 0.304 µM). In addition, the MIC in data set [9] (strain Smith) was 0.267 µg/mL (≈ 0.304 µM); in data set [10], 0.2 µg/mL; in data set [11] it was greater than 25 µg/mL; in [12] (strain 209P) it was 0.2 µg/mL (≈ 0.228 µM); in data set [12] (strain (BX-1633)(PC)r) it was 0.4 µg/mL (≈ 0.455 µM); in data set [12] (strain (EM)r) it was 0.4 µg/mL (≈ 0.455 µM). The MIC in data set [12] (strain (EM, CM, SM, PC, TC)r) amounted to 0.4 µg/mL (≈ 0.455 µM); in data set [12] (strain (EM, OM)r) it was 0.8 µg/mL (≈ 0.91 µM); in data set [12] (strain (PC, EM, NM)r) it was 0.8 µg/mL (≈ 0.91 µM); in data set [12] (strain (PC, TC, EM, LM)r 1), 6.25 µg/mL (≈ 7.11 µM); in [12] (strain (PC, TC, EM, LM)r 2) it was 6.25 µg/mL (≈ 7.11 µM); in data set [12] (strain (SM, STH)r), 0.4 µg/mL (≈ 0.455 µM). Moreover, the MIC in data set [12] (strain (STH)r) is 1.6 µg/mL (≈ 1.82 µM); in data set [12] (strain (TC, CP, PC)r), 0.4 µg/mL (≈ 0.455 µM); in data set [12] (strain (TC, EM, LM, CP)r) it was 6.25 µg/mL (≈ 7.11 µM); in data set [12] (strain Russell(PC)r) it was 0.4 µg/mL (≈ 0.455 µM); in data set [12] (strain Smith) it was 0.4 µg/mL (≈ 0.455 µM); in [13] it was greater than 25 µg/mL. Further, the MIC in data set [15] was greater than 25 µg/mL; in data set [16], 0.4 µg/mL (≈ 0.455 µM); in data set [17], 0.4 µg/mL (≈ 0.455 µM); in [18] (Staphylococcus sp. (PC)r) it was 0.4 µg/mL (≈ 0.455 µM); in data set [18] (Staphylococcus sp.) it was 0.8 µg/mL (≈ 0.91 µM). Moreover, in data set [14] (methanol, ethanol, propanols, n-butanol, dioxane, acetates, ketones, benzene, toluene, chlorinated solvents, DMF, DMSO), the “solubility in organic solvents” value is recorded as “soluble”. In addition, the “solubility in petroleum ether and hexane” value in data set [14] (petroleum ether and hexane) was “practically insoluble”. The “solubility in water and ethyl ether” value in [14] (water and ethyl ether) is “hardly soluble”.
